Source: ChEMBL document CHEMBL5120855, “Potent 2,3-dihydrophthalazine-1,4-dione derivatives as dual inhibitors for mono-ADP-ribosyltransferases PARP10 and PARP15” (Eur J Med Chem, 2022)
Values belong to the compound of their own block, whether it stands above or below them.

Legend:
[1] = target: T1, Protein mono-ADP-ribosyltransferase PARP15 (Homo sapiens, UniProt Q460N3); assay: Inhibition of human N-terminal 6His-tagged PARP15 (460 to 656 residues) expressed in Escherichia coli Rosetta2 (DE3) cells using NAD+ as substrate incubated for 10 mins by fluorescence based analysis
T1 sequence (Q460N3 whole entry): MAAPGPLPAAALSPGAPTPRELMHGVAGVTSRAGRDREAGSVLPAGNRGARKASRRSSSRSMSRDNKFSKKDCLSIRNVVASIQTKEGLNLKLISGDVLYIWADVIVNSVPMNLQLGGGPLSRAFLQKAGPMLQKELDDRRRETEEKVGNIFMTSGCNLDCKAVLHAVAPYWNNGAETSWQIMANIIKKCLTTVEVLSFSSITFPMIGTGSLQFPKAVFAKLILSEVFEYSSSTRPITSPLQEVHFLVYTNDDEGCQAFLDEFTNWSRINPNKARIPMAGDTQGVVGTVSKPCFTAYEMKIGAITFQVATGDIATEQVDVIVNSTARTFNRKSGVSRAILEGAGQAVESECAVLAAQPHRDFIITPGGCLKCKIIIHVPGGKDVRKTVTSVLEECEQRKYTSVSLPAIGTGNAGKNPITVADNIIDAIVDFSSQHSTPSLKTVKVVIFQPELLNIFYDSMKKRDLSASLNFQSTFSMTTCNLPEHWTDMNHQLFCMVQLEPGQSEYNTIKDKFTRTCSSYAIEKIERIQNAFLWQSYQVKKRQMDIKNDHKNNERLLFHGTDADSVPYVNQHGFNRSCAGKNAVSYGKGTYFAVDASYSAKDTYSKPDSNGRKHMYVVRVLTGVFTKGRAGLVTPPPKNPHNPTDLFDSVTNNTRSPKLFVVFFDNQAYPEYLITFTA

[2] = target: T2, Protein mono-ADP-ribosyltransferase PARP10 (Homo sapiens, UniProt Q53GL7); assay: Inhibition of human PARP-10 using NAD+ as substrate incubated for 10 mins by fluorescence based analysis
T2 sequence (Q53GL7 whole entry): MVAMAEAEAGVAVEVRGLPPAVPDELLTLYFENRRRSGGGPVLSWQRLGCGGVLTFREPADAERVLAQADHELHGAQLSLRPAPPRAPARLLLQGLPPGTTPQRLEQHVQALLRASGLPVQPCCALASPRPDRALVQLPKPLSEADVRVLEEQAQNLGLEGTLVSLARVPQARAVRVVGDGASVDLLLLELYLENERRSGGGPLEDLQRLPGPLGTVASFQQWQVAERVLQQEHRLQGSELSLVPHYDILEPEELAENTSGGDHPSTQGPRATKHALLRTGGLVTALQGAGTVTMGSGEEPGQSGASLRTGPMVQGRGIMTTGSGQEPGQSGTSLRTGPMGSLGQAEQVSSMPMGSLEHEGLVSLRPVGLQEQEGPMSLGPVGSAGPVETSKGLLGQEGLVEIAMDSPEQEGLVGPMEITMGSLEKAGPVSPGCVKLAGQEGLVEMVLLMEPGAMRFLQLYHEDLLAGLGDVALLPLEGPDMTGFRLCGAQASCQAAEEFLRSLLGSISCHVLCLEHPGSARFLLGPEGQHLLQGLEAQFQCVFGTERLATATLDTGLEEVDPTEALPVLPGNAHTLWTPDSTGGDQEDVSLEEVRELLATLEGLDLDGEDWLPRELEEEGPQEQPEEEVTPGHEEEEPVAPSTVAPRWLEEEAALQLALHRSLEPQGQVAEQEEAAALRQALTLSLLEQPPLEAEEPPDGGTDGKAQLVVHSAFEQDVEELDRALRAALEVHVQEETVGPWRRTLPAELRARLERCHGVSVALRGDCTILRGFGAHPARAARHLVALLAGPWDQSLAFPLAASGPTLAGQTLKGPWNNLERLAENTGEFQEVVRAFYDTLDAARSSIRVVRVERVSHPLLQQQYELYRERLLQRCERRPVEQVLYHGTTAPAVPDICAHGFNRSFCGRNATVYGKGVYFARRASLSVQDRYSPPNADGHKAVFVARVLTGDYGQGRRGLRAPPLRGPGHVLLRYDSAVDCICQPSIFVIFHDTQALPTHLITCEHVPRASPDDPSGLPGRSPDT

[3] = target: Protein mono-ADP-ribosyltransferase PARP14 (Homo sapiens, UniProt Q460N5); assay: Inhibition of human PARP14 using NAD+ as substrate incubated for 10 mins by fluorescence based analysis
[4] = target: Poly [ADP-ribose] polymerase 2 (Homo sapiens, UniProt Q9UGN5); assay: Inhibition of human PARP2 using NAD+ as substrate incubated for 10 mins by fluorescence based analysis
[5] = target: T3, Poly [ADP-ribose] polymerase tankyrase-2 (Homo sapiens, UniProt Q9H2K2); assay: Inhibition of human N-terminal 6His-tagged TNKS2 (1030 to 1317 residues) expressed in Escherichia coli Rosetta2 (DE3) cells using NAD+ as substrate incubated for 10 mins by fluorescence based analysis
T3 sequence (Q9H2K2 whole entry): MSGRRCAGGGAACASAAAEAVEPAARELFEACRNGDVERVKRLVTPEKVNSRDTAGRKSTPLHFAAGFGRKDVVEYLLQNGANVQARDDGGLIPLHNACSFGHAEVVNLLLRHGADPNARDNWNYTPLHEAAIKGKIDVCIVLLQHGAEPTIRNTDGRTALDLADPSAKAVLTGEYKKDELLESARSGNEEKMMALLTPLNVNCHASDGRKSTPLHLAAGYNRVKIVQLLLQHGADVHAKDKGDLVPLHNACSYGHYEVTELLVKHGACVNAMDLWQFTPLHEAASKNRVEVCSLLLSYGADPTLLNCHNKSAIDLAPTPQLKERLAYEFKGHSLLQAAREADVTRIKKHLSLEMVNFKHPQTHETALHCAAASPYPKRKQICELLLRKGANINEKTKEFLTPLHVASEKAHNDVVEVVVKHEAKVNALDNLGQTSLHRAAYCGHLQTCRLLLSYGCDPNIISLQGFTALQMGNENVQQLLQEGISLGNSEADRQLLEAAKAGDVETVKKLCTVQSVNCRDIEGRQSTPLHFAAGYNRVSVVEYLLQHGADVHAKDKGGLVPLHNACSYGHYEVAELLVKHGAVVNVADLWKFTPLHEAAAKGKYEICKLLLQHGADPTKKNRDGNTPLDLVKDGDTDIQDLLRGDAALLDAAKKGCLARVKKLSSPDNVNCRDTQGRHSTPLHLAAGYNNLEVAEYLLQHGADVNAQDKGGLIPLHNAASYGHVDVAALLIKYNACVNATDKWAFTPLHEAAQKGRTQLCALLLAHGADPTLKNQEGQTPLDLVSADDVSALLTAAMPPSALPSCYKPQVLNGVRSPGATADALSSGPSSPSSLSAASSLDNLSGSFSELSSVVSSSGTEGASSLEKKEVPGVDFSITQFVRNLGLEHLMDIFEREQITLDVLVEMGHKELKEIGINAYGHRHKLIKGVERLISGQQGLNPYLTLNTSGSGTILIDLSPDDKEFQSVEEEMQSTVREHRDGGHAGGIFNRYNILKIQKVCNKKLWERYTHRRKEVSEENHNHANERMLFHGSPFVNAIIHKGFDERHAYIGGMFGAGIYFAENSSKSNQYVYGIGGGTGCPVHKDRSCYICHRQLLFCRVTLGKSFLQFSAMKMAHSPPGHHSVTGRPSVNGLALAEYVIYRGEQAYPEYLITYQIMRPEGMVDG

[6] = system: HEK-293T; assay: Cytotoxicity against HEK293T cells assessed as reduction in cell viability at 10 uM measured after 24 hrs by WST-1 assay; assay type: toxicity, cell-based; conditions: human
[7] = system: HeLa; assay: Rescue of cell viability in human HeLa cells expressing wild type PARP10 at upto 10 uM incubated for 10 to 12 days by methylene blue dye based colony formation assay; assay type: functional
[8] = system: HEK-293T; assay: Cytotoxicity against HEK293T cells assessed as reduction in cell viability at 100 uM measured after 24 hrs by WST-1 assay; assay type: toxicity, cell-based; conditions: human
[9] = target: T1, Protein mono-ADP-ribosyltransferase PARP15; assay: Inhibition of PARP15 (unknown origin)

Sequence of Poly [ADP-ribose] polymerase 2 (Q9UGN5 whole entry, the tested form may be a part): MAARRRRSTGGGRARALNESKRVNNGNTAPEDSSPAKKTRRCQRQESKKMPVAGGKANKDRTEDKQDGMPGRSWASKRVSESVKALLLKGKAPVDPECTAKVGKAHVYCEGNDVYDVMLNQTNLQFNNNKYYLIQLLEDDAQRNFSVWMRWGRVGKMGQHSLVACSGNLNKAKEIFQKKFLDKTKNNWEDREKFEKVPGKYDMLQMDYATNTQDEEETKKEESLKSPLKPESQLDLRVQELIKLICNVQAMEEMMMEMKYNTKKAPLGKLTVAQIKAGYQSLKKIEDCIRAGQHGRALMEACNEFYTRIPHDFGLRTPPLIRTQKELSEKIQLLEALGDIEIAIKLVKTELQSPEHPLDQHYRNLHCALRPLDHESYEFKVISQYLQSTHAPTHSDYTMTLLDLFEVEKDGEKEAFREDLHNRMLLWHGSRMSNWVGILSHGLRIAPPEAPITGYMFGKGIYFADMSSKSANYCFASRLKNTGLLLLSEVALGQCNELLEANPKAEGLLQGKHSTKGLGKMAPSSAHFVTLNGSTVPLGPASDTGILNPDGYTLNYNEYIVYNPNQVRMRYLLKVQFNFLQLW
Sequence of Protein mono-ADP-ribosyltransferase PARP14 (Q460N5 whole entry): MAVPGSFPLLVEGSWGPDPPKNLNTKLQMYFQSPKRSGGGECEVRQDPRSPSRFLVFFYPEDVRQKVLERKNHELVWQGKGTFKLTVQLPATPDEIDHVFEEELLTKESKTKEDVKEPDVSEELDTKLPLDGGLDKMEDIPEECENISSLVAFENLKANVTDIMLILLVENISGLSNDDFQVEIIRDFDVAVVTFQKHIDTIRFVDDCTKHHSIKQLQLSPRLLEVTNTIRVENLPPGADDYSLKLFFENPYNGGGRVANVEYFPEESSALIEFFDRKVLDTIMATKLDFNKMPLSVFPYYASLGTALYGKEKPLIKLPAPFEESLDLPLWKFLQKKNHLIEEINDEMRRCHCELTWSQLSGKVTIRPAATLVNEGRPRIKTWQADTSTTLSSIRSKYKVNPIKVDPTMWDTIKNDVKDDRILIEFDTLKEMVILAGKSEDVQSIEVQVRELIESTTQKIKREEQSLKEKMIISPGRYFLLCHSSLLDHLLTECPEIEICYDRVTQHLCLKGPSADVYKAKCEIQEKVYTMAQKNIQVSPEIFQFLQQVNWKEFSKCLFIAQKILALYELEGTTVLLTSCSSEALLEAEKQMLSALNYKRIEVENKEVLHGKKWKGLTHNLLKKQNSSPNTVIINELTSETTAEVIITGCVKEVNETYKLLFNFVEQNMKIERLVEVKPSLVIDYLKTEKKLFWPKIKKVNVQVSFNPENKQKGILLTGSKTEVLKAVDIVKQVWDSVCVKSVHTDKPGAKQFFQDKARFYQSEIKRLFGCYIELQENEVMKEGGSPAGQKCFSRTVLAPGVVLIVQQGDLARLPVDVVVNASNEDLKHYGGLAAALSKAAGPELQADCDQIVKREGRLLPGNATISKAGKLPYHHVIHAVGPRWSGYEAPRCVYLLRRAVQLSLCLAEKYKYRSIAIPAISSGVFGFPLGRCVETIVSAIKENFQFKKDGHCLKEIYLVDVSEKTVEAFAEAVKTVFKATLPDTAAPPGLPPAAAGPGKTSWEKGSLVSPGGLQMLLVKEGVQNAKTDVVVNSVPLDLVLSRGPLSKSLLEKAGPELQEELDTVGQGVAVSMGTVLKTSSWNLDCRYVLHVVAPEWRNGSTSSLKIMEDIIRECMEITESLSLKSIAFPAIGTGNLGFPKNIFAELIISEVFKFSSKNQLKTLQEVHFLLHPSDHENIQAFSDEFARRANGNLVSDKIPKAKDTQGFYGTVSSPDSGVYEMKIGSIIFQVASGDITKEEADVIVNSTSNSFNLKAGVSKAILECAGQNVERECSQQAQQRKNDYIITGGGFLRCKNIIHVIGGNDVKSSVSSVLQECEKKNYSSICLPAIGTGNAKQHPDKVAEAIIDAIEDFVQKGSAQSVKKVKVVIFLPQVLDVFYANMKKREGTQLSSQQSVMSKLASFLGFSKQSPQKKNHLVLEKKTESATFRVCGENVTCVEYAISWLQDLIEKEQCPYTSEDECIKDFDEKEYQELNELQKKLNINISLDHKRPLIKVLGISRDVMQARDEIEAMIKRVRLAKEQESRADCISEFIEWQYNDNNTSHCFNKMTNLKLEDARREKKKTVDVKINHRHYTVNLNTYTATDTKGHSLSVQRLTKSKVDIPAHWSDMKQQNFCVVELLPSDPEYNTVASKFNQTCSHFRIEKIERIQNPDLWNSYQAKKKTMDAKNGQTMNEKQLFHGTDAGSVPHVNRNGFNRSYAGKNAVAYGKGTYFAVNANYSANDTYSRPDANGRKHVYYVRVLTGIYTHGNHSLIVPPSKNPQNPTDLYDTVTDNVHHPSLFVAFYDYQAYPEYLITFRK

IC50 [1]: 1.3 µM
IC50 [2]: 1.2 µM
IC50 [3]: > 100 µM
IC50 [4]: > 100 µM
IC50 [5]: > 100 µM
Structure (SMILES): O=c1[nH][nH]c(=O)c2cc(OCc3cccc(Br)c3)ccc12
Activity [6]: Non-Toxic

IC50 [1]: 1.2 µM
IC50 [2]: 0.31 µM
IC50 [3]: > 10 µM
IC50 [4]: > 100 µM
IC50 [5]: > 100 µM
Structure (SMILES): O=c1[nH][nH]c(=O)c2cc(OCC3CC3)ccc12
Activity [6]: Non-Toxic

EC50 [7]: 1.5 µM
IC50 [1]: 0.4 µM
IC50 [2]: 0.14 µM
Structure (SMILES): O=c1[nH][nH]c(=O)c2cc(OCC3CCCCC3)ccc12
Activity [6]: Non-Toxic

IC50 [1]: 5 µM
IC50 [2]: 4.4 µM
IC50 [3]: > 100 µM
IC50 [4]: > 100 µM
IC50 [5]: > 100 µM
Structure (SMILES): COc1cc(OCC2CCCCC2)ccc1C(N)=O
Activity [6]: Non-Toxic

IC50 [1]: 0.37 µM
IC50 [2]: 0.16 µM
IC50 [3]: > 10 µM
IC50 [4]: > 100 µM
IC50 [5]: > 100 µM
Structure (SMILES): O=c1[nH][nH]c(=O)c2cc(OCC3CCC3)ccc12
Activity [6]: Non-Toxic

IC50 [1]: 0.32 µM
IC50 [2]: 0.13 µM
IC50 [3]: > 10 µM
IC50 [4]: > 100 µM
IC50 [5]: > 100 µM
Structure (SMILES): O=c1[nH][nH]c(=O)c2cc(OCC3CCCC3)ccc12
Activity [6]: Non-Toxic

IC50 [1]: > 10 µM
IC50 [2]: 0.96 µM
IC50 [3]: > 10 µM
IC50 [4]: > 100 µM
IC50 [5]: > 100 µM
Structure (SMILES): NC(=O)c1ccc(OCC2CCCCC2)cc1F
Activity [6]: Non-Toxic

EC50 [7]: 1.6 µM
IC50 [1]: 0.37 µM
IC50 [2]: 0.15 µM
Structure (SMILES): O=c1[nH][nH]c(=O)c2cc(OCc3ccccc3F)ccc12
Activity [6]: Non-Toxic

EC50 [7]: 0.95 µM
IC50 [1]: 0.4 µM
IC50 [2]: 0.16 µM
Structure (SMILES): O=c1[nH][nH]c(=O)c2cc(OCc3ccsc3)ccc12
Activity [6]: Non-Toxic

IC50 [1]: 3.8 µM
IC50 [2]: 0.59 µM
IC50 [3]: > 10 µM
IC50 [4]: > 100 µM
IC50 [5]: > 100 µM
Structure (SMILES): NC(=O)c1ccc(OCC2CCCC2)cc1
Activity [6]: Non-Toxic

Further lines, the compound ahead of its results:

Structure (SMILES): NC(=O)c1ccc(OCC2CCCCC2)cc1OCc1ccccn1
IC50 [1]: > 10 µM
IC50 [2]: > 10 µM
IC50 [3]: > 10 µM
IC50 [4]: > 100 µM
IC50 [5]: > 100 µM
Activity [6]: Non-Toxic

Structure (SMILES): COc1ccccc1COc1ccc(C(N)=O)c(F)c1
IC50 [1]: > 10 µM
IC50 [2]: 8.2 µM
IC50 [3]: 6.8 µM
IC50 [4]: > 100 µM
IC50 [5]: > 100 µM
Activity [6]: Non-Toxic

Structure (SMILES): COc1cc(OCc2cccc3ccccc23)ccc1C(N)=O
IC50 [1]: 2.2 µM
IC50 [2]: 5 µM
IC50 [3]: > 100 µM
IC50 [4]: > 100 µM
IC50 [5]: > 100 µM
Activity [6]: Non-Toxic

Structure (SMILES): NC(=O)c1ccc(OCC2CCCCC2)cc1
IC50 [1]: 3.6 µM
IC50 [2]: 1.7 µM
IC50 [3]: > 100 µM
IC50 [4]: > 100 µM
IC50 [5]: > 100 µM
Activity [6]: Non-Toxic

Structure (SMILES): NC(=O)c1ccc(OCC2CCC2)cc1OCCN1CCNCC1
IC50 [1]: > 10 µM
IC50 [2]: > 10 µM
IC50 [3]: > 10 µM
IC50 [4]: > 100 µM
IC50 [5]: > 100 µM
Activity [6]: Non-Toxic

Structure (SMILES): NC(=O)c1ccc(OCC2CCC2)cc1F
IC50 [1]: 6 µM
IC50 [2]: 0.62 µM
IC50 [3]: > 10 µM
IC50 [4]: > 100 µM
IC50 [5]: > 100 µM
Activity [6]: Non-Toxic

Structure (SMILES): NC(=O)c1ccc(OCc2cncs2)cc1
IC50 [1]: 2.4 µM
IC50 [2]: 1.6 µM
IC50 [3]: > 10 µM
IC50 [4]: > 100 µM
IC50 [5]: > 100 µM
Activity [6]: Non-Toxic

Structure (SMILES): NC(=O)c1ccc(OCc2cccc(Br)c2)cc1F
IC50 [1]: 0.6 µM
IC50 [2]: 1.5 µM
IC50 [3]: > 10 µM
IC50 [4]: > 100 µM
IC50 [5]: > 100 µM
Activity [6]: Non-Toxic

Structure (SMILES): COc1cc(OCc2ccccc2F)ccc1C(N)=O
IC50 [1]: 2.6 µM
IC50 [2]: 1.9 µM
IC50 [3]: > 10 µM
Activity [8]: Toxic
IC50 [4]: > 100 µM
IC50 [5]: > 100 µM
Activity [6]: Non-Toxic

Structure (SMILES): Cc1cccc(C(=O)N[C@H](C(N)=O)C(=O)c2ccc3c(=O)[nH][nH]c(=O)c3c2)c1
IC50 [9]: 0.2 µM

Structure (SMILES): COc1cc(OCc2cccc(Br)c2)ccc1C(N)=O
IC50 [1]: 2.5 µM
IC50 [2]: > 10 µM
IC50 [3]: > 100 µM
IC50 [4]: > 100 µM
IC50 [5]: > 100 µM
Activity [6]: Non-Toxic

Structure (SMILES): NC(=O)c1ccc(OCC2CC2)cc1
IC50 [1]: 4.8 µM
IC50 [2]: 0.6 µM
IC50 [3]: > 10 µM
IC50 [4]: 53 µM
IC50 [5]: > 100 µM
Activity [6]: Non-Toxic
